Measurements taken from PubChem BioAssay AID1963430 (Molecular Pharmacology Branch, DTP, NCI, 2024).

Test system: 521955-158-R2-J5-PDC complex spheroid growth, % test/control
Assay: Anticancer human tumor 521955-158-R2-J5-PDC patient-derived pancreatic carcinoma cell line growth inhibition [Asc]
Conditions: for IC50: curve of first compound; for viability, T/C: stronger effect = lower value
Outline: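 Concentration series start at each agent's clinical Cmax, or at 10 microM when none is established, and drop in half-log steps; agents are applied alone or together to complex spheroids built with HUVEC and hMSC.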

[1] = second compound 0.03 µM, first compound 0.0316 µM
[2] = second compound 0.03 µM, first compound 0.1 µM
[3] = second compound 0.03 µM, first compound 0.316 µM
[4] = second compound 0.03 µM, first compound 1 µM
[5] = second compound 0.03 µM, first compound 3.16 µM
[6] = second compound 0.03 µM, first compound 10 µM
[7] = second compound 0.0949 µM, first compound 0.0316 µM
[8] = second compound 0.0949 µM, first compound 0.1 µM
[9] = second compound 0.0949 µM, first compound 0.316 µM
[10] = second compound 0.0949 µM, first compound 1 µM
[11] = second compound 0.0949 µM, first compound 3.16 µM
[12] = second compound 0.0949 µM, first compound 10 µM
[13] = second compound 0.3 µM, first compound 0.0316 µM
[14] = second compound 0.3 µM, first compound 0.1 µM
[15] = second compound 0.3 µM, first compound 0.316 µM
[16] = second compound 0.3 µM, first compound 1 µM
[17] = second compound 0.3 µM, first compound 3.16 µM
[18] = second compound 0.3 µM, first compound 10 µM
[19] = second compound 0.949 µM, first compound 0.0316 µM
[20] = second compound 0.949 µM, first compound 0.1 µM
[21] = second compound 0.949 µM, first compound 0.316 µM
[22] = second compound 0.949 µM, first compound 1 µM
[23] = second compound 0.949 µM, first compound 3.16 µM
[24] = second compound 0.949 µM, first compound 10 µM
[25] = second compound 3 µM, first compound 0.0316 µM
[26] = second compound 3 µM, first compound 0.1 µM
[27] = second compound 3 µM, first compound 0.316 µM
[28] = second compound 3 µM, first compound 1 µM
[29] = second compound 3 µM, first compound 3.16 µM
[30] = second compound 3 µM, first compound 10 µM
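Note: spheroids exposed to agents for 7 days before readout.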
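Throughout, for viability, T/C: 100% = DMSO vehicle control viability.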

Structure (SMILES)	IC50 (second compound 0.03 µM) [µM]	IC50 (second compound 0.0949 µM) [µM]	IC50 (second compound 0.3 µM) [µM]	IC50 (second compound 0.949 µM) [µM]	IC50 (second compound 3 µM) [µM]	viability, T/C [1] [%]	viability, T/C [2] [%]	viability, T/C [3] [%]	viability, T/C [4] [%]	viability, T/C [7] [%]	viability, T/C [8] [%]	viability, T/C [9] [%]	viability, T/C [10] [%]	viability, T/C [13] [%]	viability, T/C [14] [%]	viability, T/C [15] [%]	viability, T/C [16] [%]	viability, T/C [19] [%]	viability, T/C [20] [%]	viability, T/C [21] [%]	other results
C#Cc1c(F)ccc2cc(O)cc(-c3ncc4c(N5CC6CCC(C5)N6)nc(OCC56CCCN5CC(F)C6)nc4c3F)c12 (stereo not given) + CCN1C(C(=O)NC23CCC(C(=O)O)(CC2)CC3)C(c2cccc(Cl)c2F)C2(C(=O)Nc3cc(Cl)ccc32)C12CCCCC2	< 0.0316	< 0.0316	< 0.0316	< 0.0316	4.99	53	41.6	33.2	35.1	48.1	39.8	44.4	38	45.9	44	39.9	40.4	42.7	50.6	56.3	viability, T/C [5]: 35.5%; viability, T/C [6]: 32%; viability, T/C [11]: 41.7%; viability, T/C [12]: 43.9%; viability, T/C [17]: 42.9%; viability, T/C [18]: 39.2%; viability, T/C [22]: 41.1%; viability, T/C [23]: 54.8%; viability, T/C [24]: 42.4%; viability, T/C [25]: 70.1%; viability, T/C [26]: 68.9%; viability, T/C [27]: 66%; viability, T/C [28]: 59.1%; viability, T/C [29]: 55.1%; viability, T/C [30]: 43.8%
C=C(F)C(=O)N1CCN(c2nc(OCC3CCCN3C)nc3c2CCN(c2cccc4cccc(Cl)c24)C3)CC1CC#N (stereo not given) + CCN1C(C(=O)NC23CCC(C(=O)O)(CC2)CC3)C(c2cccc(Cl)c2F)C2(C(=O)Nc3cc(Cl)ccc32)C12CCCCC2	5.38	5.58	6.04	6.7	6.81	95.2	95.1	77.5	85.2	98	103	71.4	91.5	110	98.2	108	113	130	95.8	109	viability, T/C [5]: 110%; viability, T/C [6]: 0.26%; viability, T/C [11]: 128%; viability, T/C [12]: 0.27%; viability, T/C [17]: 141%; viability, T/C [18]: 0.27%; viability, T/C [22]: 112%; viability, T/C [23]: 152%; viability, T/C [24]: 12.7%; viability, T/C [25]: 120%; viability, T/C [26]: 154%; viability, T/C [27]: 146%; viability, T/C [28]: 137%; viability, T/C [29]: 188%; viability, T/C [30]: 0.35%
C=CC(=O)N1CCN(c2nc(=O)n(-c3c(C)ccnc3C(C)C)c3nc(-c4c(O)cccc4F)c(F)cc23)C(C)C1 (stereo not given) + CCN1C(C(=O)NC23CCC(C(=O)O)(CC2)CC3)C(c2cccc(Cl)c2F)C2(C(=O)Nc3cc(Cl)ccc32)C12CCCCC2	> 10	> 10	> 10	> 10	> 10	75.2	67.4	92.5	113	112	107	113	116	76.2	110	111	122	107	110	140	viability, T/C [5]: 127%; viability, T/C [6]: 98.3%; viability, T/C [11]: 114%; viability, T/C [12]: 105%; viability, T/C [17]: 130%; viability, T/C [18]: 91.2%; viability, T/C [22]: 130%; viability, T/C [23]: 130%; viability, T/C [24]: 90.2%; viability, T/C [25]: 128%; viability, T/C [26]: 135%; viability, T/C [27]: 123%; viability, T/C [28]: 141%; viability, T/C [29]: 120%; viability, T/C [30]: 112%
CNC(C)C(=O)NC1CN(S(=O)(=O)c2cccc(S(=O)(=O)N3CCC4CCC(C(=O)NC(c5ccccc5)c5ccccc5)N4C(=O)C(NC(=O)C(C)NC)C3)c2)CCC2CCC(C(=O)NC(c3ccccc3)c3ccccc3)N2C1=O (stereo not given) + CCN1C(C(=O)NC23CCC(C(=O)O)(CC2)CC3)C(c2cccc(Cl)c2F)C2(C(=O)Nc3cc(Cl)ccc32)C12CCCCC2	> 1	> 1	> 1	> 1	> 1	86.4	65.2	66	76	90.7	101	105	115	84.3	97.6	94	102	158	116	84.2	viability, T/C (second compound 0.03 µM, first compound 0.00316 µM): 141%; viability, T/C (second compound 0.03 µM, first compound 0.01 µM): 76.6%; viability, T/C (second compound 0.0949 µM, first compound 0.00316 µM): 111%; viability, T/C (second compound 0.0949 µM, first compound 0.01 µM): 95.8%; viability, T/C (second compound 0.3 µM, first compound 0.00316 µM): 120%; viability, T/C (second compound 0.3 µM, first compound 0.01 µM): 133%; viability, T/C (second compound 0.949 µM, first compound 0.00316 µM): 87.8%; viability, T/C (second compound 0.949 µM, first compound 0.01 µM): 102%; viability, T/C [22]: 106%; viability, T/C (second compound 3 µM, first compound 0.00316 µM): 166%; viability, T/C (second compound 3 µM, first compound 0.01 µM): 102%; viability, T/C [25]: 141%; viability, T/C [26]: 120%; viability, T/C [27]: 151%; viability, T/C [28]: 123%
